Measurements reported in US6737383B1, “Herbicidal oxadiazolidines” (priority 1999, dated 2004).

How the values were obtained:
[1] = tested on: crabgrass; test: Test B pre/postemergence crabgrass; format: in vivo, Digitaria sanguinalis
Outline: (§1)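 Response is a visual 0-to-10 score relative to untreated plants, where 0 means no effect and 10 means complete control, taken twelve to sixteen days after application. Treatments went onto soil at planting and onto foliage of 1- to 4-leaf plants, using a surfactant-containing non-phytotoxic solvent.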

[2] = tested on: corn; test: Test B pre/postemergence corn; format: in vivo, Zea mays
Outline: as §1

[3] = tested on: bamyardgrass; test: Test B flood test barnyardgrass; format: in vivo, Echinochloa crus-galli
Outline: (§2)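 Each value is a visual injury score relative to controls, with 10 meaning complete control and 0 no effect. Evaluation took place twelve to sixteen days after the 2-leaf-stage plants were treated and kept in the greenhouse.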

[4] = tested on: sugar beet; test: Test B pre/postemergence sugar beet; format: in vivo, Beta vulgaris
Outline: as §1

[5] = tested on: soybean; test: Test B pre/postemergence soybean; format: in vivo, Glycine max
Outline: as §1

[6] = tested on: bedstraw; test: Test B pre/postemergence bedstraw; format: in vivo, Galium aparine
Outline: as §1

[7] = tested on: smallflower flatsedge; test: Test B flood test smallflower flatsedge; format: in vivo, Cyperus difformis
Outline: as §2

[8] = tested on: rape; test: Test B pre/postemergence rape; format: in vivo, Brassica napus
Outline: as §1

[9] = tested on: duck salad; test: Test B flood test duck salad; format: in vivo, Heteranthera limosa
Outline: as §2

[10] = tested on: cocklebur; test: Test B pre/postemergence cocklebur; format: in vivo, Xanthium strumarium
Outline: as §1

[11] = tested on: wheat; test: Test B pre/postemergence wheat; format: in vivo, Triticum aestivum
Outline: as §1

[12] = tested on: rice; test: Test B flood test rice; format: in vivo, Oryza sativa
Outline: as §2

[13] = tested on: blackgrass; test: Test B pre/postemergence blackgrass; format: in vivo, Alopecurus myosuroides
Outline: as §1

[14] = tested on: wild oat; test: Test B pre/postemergence wild oat; format: in vivo, Avena fatua
Outline: as §1

[15] = tested on: surinam grass; test: Test B pre/postemergence surinam grass; format: in vivo, Brachiaria decumbens
Outline: as §1

[16] = tested on: velvetleaf; test: Test B pre/postemergence velvetleaf; format: in vivo, Abutilon theophrasti
Outline: as §1

[17] = tested on: purple nutsedge; test: Test B pre/postemergence purple nutsedge; format: in vivo, Cyperus rotundus
Outline: as §1

[18] = Postemergence, Rate 62 g/ha, scale of 0 to 10, 0 is no effect, 10 is complete control
[19] = Postemergence, Rate 125 g/ha, scale 0 to 10, 0 is no effect, 10 is complete control
[20] = Postemergence, Rate 500 g/ha, scale 0 to 10, 0 is no effect, 10 is complete control
[21] = Preemergence, Rate 62 g/ha, scale of 0 to 10 where 0 is no effect and 10 is complete control
[22] = Preemergence, Rate 125 g/ha, scale 0 to 10, 0 is no effect, 10 is complete control
[23] = Preemergence, Rate 500 g/ha, scale of 0 to 10 where 0 is no effect and 10 is complete control
[24] = Rate 250 g/ha, Postemergence, scale of 0 to 10 where 0 is no effect and 10 is complete control
[25] = Rate 62 g/ha, flood test species, Pre-emergence, visual evaluation after twelve to sixteen days
[26] = Rate 125 g/ha, under heading Pre-emergence, flood test species, visual evaluation after twelve to sixteen days
[27] = Rate 250 g/ha, Pre-emergence (flood test species), scale 0 to 10, 0 is no effect, 10 is complete control
[28] = Rate 500 g/ha, Pre-emergence section of Table B, 0 to 10 scale (0 no effect, 10 complete control)

SMILES: CC(C)N(C(=O)n1oc(=O)n(CCC2OCCO2)c1=O)c1ccc(Cl)cc1 [Compound 531]
- Crabgrass plant response rating [1, 18]: 2
- Crabgrass plant response rating [1, 19]: 8
- Plant response rating, Crabgrass [1, 20]: 10
- Plant response rating, Crabgrass [1, 21]: 8
- Crabgrass plant response rating [1, 22]: 10
- Crabgrass plant response rating (0 to 10 scale) ([1]; Preemergence, Rate 250 g/ha): 10
- Crabgrass plant response rating [1, 23]: 10
- Plant response rating, Crabgrass [1, 24]: 9
- Corn plant response rating [2, 18]: 0
- Corn plant response rating [2, 19]: 0
- Plant response rating, Corn [2, 20]: 0
- Plant response rating, Corn [2, 21]: 0
- Corn plant response rating [2, 22]: 0
- Corn plant response rating (0 to 10 scale) ([2]; Preemergence, Rate 250 g/ha): 0
- Corn plant response rating [2, 23]: 0
- Plant response rating, Corn [2, 24]: 0
- Plant response rating, Barnyardgrass (0 to 10 scale, 0 is no effect, 10 is complete control) [3, 25]: 0
- Barnyardgrass plant response rating (0 to 10 scale, 0 is no effect, 10 is complete control) [3, 26]: 0
- Barnyardgrass plant response rating [3, 27]: 0
- Barnyardgrass plant response rating [3, 28]: 0
- Sugarbeets plant response rating [4, 18]: 0
- Sugarbeets plant response rating [4, 19]: 0
- Plant response rating, Sugarbeets [4, 20]: 6
- Plant response rating, Sugarbeets [4, 21]: 0
- Sugarbeets plant response rating [4, 22]: 4
- Sugarbeets plant response rating (0 to 10 scale) ([4]; Preemergence, Rate 250 g/ha): 3
- Plant response rating, Sugarbeets [4, 24]: 0
- Soybean plant response rating [5, 18]: 3
- Soybean plant response rating [5, 19]: 3
- Plant response rating, Soybean [5, 20]: 6
- Plant response rating, Soybean [5, 21]: 0
- Soybean plant response rating [5, 22]: 0
- Soybean plant response rating (0 to 10 scale) ([5]; Preemergence, Rate 250 g/ha): 0
- Soybean plant response rating [5, 23]: 0
- Plant response rating, Soybean [5, 24]: 6
- Bedstraw plant response rating [6, 18]: 0
- Bedstraw plant response rating [6, 19]: 0
- Plant response rating, Bedstraw [6, 20]: 3
- Plant response rating, Bedstraw [6, 21]: 0
- Bedstraw plant response rating (0 to 10 scale) ([6]; Preemergence, Rate 250 g/ha): 0
- Plant response rating, Bedstraw [6, 24]: 0
- Plant response rating, S. Flatsedge (0 to 10 scale, 0 is no effect, 10 is complete control) [7, 25]: 0
- S. Flatsedge plant response rating (0 to 10 scale, 0 is no effect, 10 is complete control) [7, 26]: 0
- S. Flatsedge plant response rating [7, 27]: 0
- S. Flatsedge plant response rating [7, 28]: 0
- Rape plant response rating [8, 18]: 0
- Rape plant response rating [8, 19]: 0
- Plant response rating, Rape [8, 20]: 2
- Plant response rating, Rape [8, 21]: 0
- Rape plant response rating [8, 22]: 0
- Rape plant response rating (0 to 10 scale) ([8]; Preemergence, Rate 250 g/ha): 0
- Plant response rating, Rape [8, 24]: 0
- Plant response rating, Ducksalad (0 to 10 scale, 0 is no effect, 10 is complete control) [9, 25]: 0
- Ducksalad plant response rating (0 to 10 scale, 0 is no effect, 10 is complete control) [9, 26]: 0
- Ducksalad plant response rating [9, 27]: 0
- Ducksalad plant response rating [9, 28]: 0
- Cocklebur plant response rating [10, 18]: 0
- Cocklebur plant response rating [10, 19]: 0
- Plant response rating, Cocklebur [10, 20]: 5
- Plant response rating, Cocklebur [10, 21]: 0
- Cocklebur plant response rating [10, 22]: 0
- Cocklebur plant response rating (0 to 10 scale) ([10]; Preemergence, Rate 250 g/ha): 0
- Cocklebur plant response rating [10, 23]: 0
- Plant response rating, Cocklebur [10, 24]: 2
- Wheat plant response rating [11, 18]: 0
- Wheat plant response rating [11, 19]: 0
- Plant response rating, Wheat [11, 20]: 0
- Plant response rating, Wheat [11, 21]: 0
- Wheat plant response rating [11, 22]: 0
- Wheat plant response rating (0 to 10 scale) ([11]; Preemergence, Rate 250 g/ha): 0
- Plant response rating, Wheat [11, 24]: 0
- Plant response rating, Rice (0 to 10 scale, 0 is no effect, 10 is complete control) [12, 25]: 0
- Rice plant response rating (0 to 10 scale, 0 is no effect, 10 is complete control) [12, 26]: 0
- Rice plant response rating [12, 27]: 0
- Rice plant response rating [12, 28]: 0
- Blackgrass plant response rating [13, 18]: 0
- Blackgrass plant response rating [13, 19]: 0
- Plant response rating, Blackgrass [13, 20]: 6
- Plant response rating, Blackgrass [13, 21]: 2
- Blackgrass plant response rating [13, 22]: 9
- Blackgrass plant response rating (0 to 10 scale) ([13]; Preemergence, Rate 250 g/ha): 9
- Plant response rating, Blackgrass [13, 24]: 0
- Wild oats plant response rating [14, 18]: 0
- Wild oats plant response rating [14, 19]: 0
- Plant response rating, Wild oats [14, 20]: 0
- Plant response rating, Wild oats [14, 21]: 0
- Wild oats plant response rating [14, 22]: 0
- Wild oats plant response rating (0 to 10 scale) ([14]; Preemergence, Rate 250 g/ha): 0
- Plant response rating, Wild oats [14, 24]: 0
- B. signalgrass plant response rating [15, 18]: 0
- B. signalgrass plant response rating [15, 19]: 0
- Plant response rating, B. signalgrass [15, 20]: 4
- Plant response rating, B. signalgrass [15, 21]: 2
- B. signalgrass plant response rating [15, 22]: 2
- B. signalgrass plant response rating (0 to 10 scale, 0 is no effect, 10 is complete control) ([15]; Preemergence, Rate 250 g/ha): 2
- Plant response rating, B. signalgrass [15, 24]: 0
- Velvetleaf plant response rating [16, 18]: 0
- Velvetleaf plant response rating [16, 19]: 0
- Plant response rating, Velvetleaf [16, 20]: 3
- Plant response rating, Velvetleaf [16, 21]: 0
- Velvetleaf plant response rating [16, 22]: 0
- Velvetleaf plant response rating (0 to 10 scale) ([16]; Preemergence, Rate 250 g/ha): 2
- Velvetleaf plant response rating [16, 23]: 5
- Plant response rating, Velvetleaf [16, 24]: 0
- Nutsedge plant response rating [17, 18]: 0
- Nutsedge plant response rating [17, 19]: 0
- Plant response rating, Nutsedge [17, 20]: 3
- Plant response rating, Nutsedge [17, 21]: 0
- Nutsedge plant response rating [17, 22]: 0
- Nutsedge plant response rating (0 to 10 scale) ([17]; Preemergence, Rate 250 g/ha): 0
- Nutsedge plant response rating [17, 23]: 0
- Plant response rating, Nutsedge [17, 24]: 0
